The results in this text go back to patent US20240228469A1, “PCSK9 INHIBITORS AND METHODS OF USE THEREOF” (AstraZeneca AB, priority 2022, published 2024).

The term IC50 denotes the concentration at which inhibition is half-maximal. What is called Kd is the concentration at which binding is half-saturated.

The target in test [1] is GSK3β (Glycogen synthase kinase-3 beta) (Homo sapiens, UniProt P49841). In words: Assay 6 GSK3β assay (ThermoFisher Z-Lyte FRET). It counts as biochemical. To be noted: ATP Conc: 10 μM, geometric mean; read-out: Assay 6 (GSK3β FRET-Z-Lyte Cr) GMean IC50. The method, boiled down:
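Z-Lyte FRET: 0.22-0.92 ng kinase with 2 μM Ser/Thr 09 peptide in HEPES pH 7.5, MgCl2, EGTA, 60 min at room temperature, then 60 min development. Compounds in 1% DMSO, 10-point 3-fold series from 10 μM; sigmoidal dose-response fit.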

For test [2], the target named is T1, potassium ion channel hERG (Homo sapiens, UniProt Q12809).
T1 construct: expressed in transfected cells; host or cells: Chinese hamster ovary K1 (CHO)
Kind of test: Assay 5 hERG assay (patch clamp, CHO cells over-expressing hERG). It is filed as cell-based. To be noted: SyncroPatch 384PE, room temperature, geometric mean, read-out: Assay 5 (hERG Hu CHO if EPh CR-Syncro) GMean IC50. In short, it runs like this: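 hERG currents recorded by automated patch clamp at room temperature in CHO-K1 cells, 6-point cumulative concentrations. SyncroPatch runs used KF-based internal (pH 7.2) and NMDG-containing external solution (pH 7.4), 0.33% DMSO; QPatchII runs used 2% or 0.4% DMSO. Only wells meeting seal-resistance and current-size criteria kept.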
In general terms: hERG is a cardiac potassium channel; its block is linked to QT prolongation.

For test [3], the target named is PCSK9 (Homo sapiens, UniProt Q8NBP7). Kind of test: Assay 2 Biophysical human PCSK9 assay (SPR, Biacore). It is filed as binding. Also noted: biotinylated human PCSK9 (31-692)-Avi-His6; His6 (C). The conditions noted are these: single-cycle kinetics, 30° C., geometric mean, read-out: Assay 2 (PCSK9 BIAcore DBA Cr) GMean Kd. On the procedure: The SPR binding experiments were performed on a Biacore S200 optical biosensor unit at 30° C. A Series S Sensor Chip SA that is designed to bind biotinylated molecules for interaction analysis in Biacore systems was equilibrated at room temperature prior to use. The running buffer for protein tethering and subsequent ligand binding experiments was 10 mM HEPES pH 7.4, 150 mM NaCl, 0.05% (v/v) Tween 20 pH 7.4.
For the surface tethering of PCSK9, biotinylated human PCSK9 (31-692)-Avi-His6 at a concentration of 0.5 mg/mL was used. Prior to the surface tethering, the surface was exposed to a solution of 50 mM NaOH, 500 mM NaCl via 3 consecutive injections of this solution with a contact time of 60 s and a flowrate of 10 μL min^−1 to remove non-conjugated streptavidin. The PCSK9 protein was diluted to a concentration of 20 μg/mL using running buffer and injected with a contact time of 180-300 s and a flowrate of 10 μL min^−1 over a single flow channel (typically flow channel 2 or flow channel 4) with the aim to achieve protein capture levels of >5000 response units (RU). Remaining biotin binding sites were blocked via 2 consecutive injections of a 10 μM D-biotin solution in running buffer with a contact time of 60 s and a flowrate of 10 μL min^−1 over all flow-channels. Flow-channels 1 and 3 typically served as a reference surface throughout the subsequent binding experiments.
The binding experiments were all performed at a flow rate of 30 PL min^−1 and by employing the method of single-cycle kinetics. This approach involves the sequential injection of a compound concentration series without regeneration steps. A contact time between 90-150 s was selected, which was followed by a 40 min dissociation phase to allow for a proper estimation of the dissociation rate constant. Test compounds were delivered in DMSO at a concentration of 10 mM and a digital dispenser HP D300 was used to set up the compound concentration series using 6 concentrations. The tested concentrations have been 30, 100, 300, 1000, 3000 and 10000 nM. Prior to injecting any compound, the surfaces were equilibrated by injecting running buffer over them in three separate pulses. The data collection rate was set to 10 Hz.
The raw sensorgrams of the compound injections were first subjected to reference subtraction (subtracting the signal from flow channel 1 and/or 3 from the signal from channels 2 and/or 4 respectively) and then blank subtraction (subtracting the signal from injecting DMSO controls from the reference subtracted data). The resulting double-referenced sensorgrams were then fitted using a 1:1 binding interaction model using the manufactures software package to extract kinetic- and affinity data. Active compounds have been defined by creating a detectable binding signal at the highest compound concentration ([…]) of 3 RUs. Kinetic- and affinity data on active compounds are only provided for those compounds where the binding signal at the highest compound concentration ([…]) is 50% of the theoretical maximum binding signal for a 1:1 binding interaction (Rmax, typically between 15-20 RUs) in order to enable a proper fitting of the data.
Background: SPR reads the build-up and loss of mass on a sensor chip optically.

Test [4] addresses T2, PCSK9 (Homo sapiens, UniProt Q8NBP7, G670E/V474I). In words: biochemical.
The target in test [5] is T2, PCSK9. In words: Assay 3 PCSK9 LDL-C uptake assay in HepG2 cells. It counts as cell-based. Also noted: TEV site (C); His6 (C); host or cells: added to HepG2 (ATCC #HB-8065). The conditions noted are these: 125 nM PCSK9, pHrodo Red-LDL, read-out: Assay 3 LDL uptake potency. From the text:
This assay measures for PCSK9 antagonist activity based on a test compound's capacity to restore LDL-C-uptake in HepG2 cells. The assay is based on exogenous PCSK9 and LDL-C complexed with a pH-sensitive dye. Outside the cells, at neutral pH, the pHrodo Red-LDL is dimly fluorescent but upon LDLR mediated endocytosis it fluoresces brightly. PCSK9 traffics the LDLR to intracellular degradation and reduces uptake of LDL-C. Inhibition of PCSK9 reduces LDLR degradation and the increased LDL-C uptake is quantified by fluorescence microscopy.
• Cell medium: MEM supplemented with 10% FBS, 1×NEAA and Sodium Pyruvate • Assay medium: OptiMem supplemented with penicillin/streptomycin • Cells: HepG2 (ATCC #HB-8065)
• 1. Cryopreserved HepG2 cells were thawed in assay medium and centrifuged for 5 min at 250 g. Supernatant was discarded and the cell pellet resuspended in cell medium and counted with a Nucleocounter. Cells were again centrifuged 5 min at 250 g and the pellet was resuspended to 500000 cells/mL in assay medium. • 2. 20 μL of above cell mix was dispensed into black μclear TC treated 384 well plates with Multidrop Combi and left at room temperature for 20 minutes. • 3. Plates were incubated at 37° C., 5% CO2 for 24 h
• 1. Test compounds were prepared in concentration response in DMSO with a half-log dilution factor in DMSO in Echo 384 LDV plates starting at 10 mM. • 2. 30 nL of above test compounds were dispensed with Echo 655 to cells for a top concentration of 10 μM • 3. 10 μL PCSK9 in assay medium was dispensed to cells with Multidrop Combi for 125 nM final concentration in the wells. • 4. Plates were incubated at 37° C., 5% CO2 for 24 h
• 1. 10 μL pHrodo Red-LDL in assay medium was dispensed to cells with Multidrop Combi for […] • 2. Plates were incubated at 37° C., 5% CO2 and imaged with the Incucyte S3 after 4 h and 24 h
Image data was processed using Incucyte 2021, a software to identify cells and red fluorescent intensity. Screener was used to further process data. Data was normalized as % effect of the signal between median values of the on-plate controls of DMSO and 100 nM Evolocumab according to the formula % effect=−100*(x−DMSO)/(Evolocumab−DMSO) where x equals the measured signal. Concentration response data of the normalized values were fitted using a four-parameter logistic fit.

PCSK9 (Homo sapiens, UniProt Q8NBP7), sequence (Q8NBP7 31-692): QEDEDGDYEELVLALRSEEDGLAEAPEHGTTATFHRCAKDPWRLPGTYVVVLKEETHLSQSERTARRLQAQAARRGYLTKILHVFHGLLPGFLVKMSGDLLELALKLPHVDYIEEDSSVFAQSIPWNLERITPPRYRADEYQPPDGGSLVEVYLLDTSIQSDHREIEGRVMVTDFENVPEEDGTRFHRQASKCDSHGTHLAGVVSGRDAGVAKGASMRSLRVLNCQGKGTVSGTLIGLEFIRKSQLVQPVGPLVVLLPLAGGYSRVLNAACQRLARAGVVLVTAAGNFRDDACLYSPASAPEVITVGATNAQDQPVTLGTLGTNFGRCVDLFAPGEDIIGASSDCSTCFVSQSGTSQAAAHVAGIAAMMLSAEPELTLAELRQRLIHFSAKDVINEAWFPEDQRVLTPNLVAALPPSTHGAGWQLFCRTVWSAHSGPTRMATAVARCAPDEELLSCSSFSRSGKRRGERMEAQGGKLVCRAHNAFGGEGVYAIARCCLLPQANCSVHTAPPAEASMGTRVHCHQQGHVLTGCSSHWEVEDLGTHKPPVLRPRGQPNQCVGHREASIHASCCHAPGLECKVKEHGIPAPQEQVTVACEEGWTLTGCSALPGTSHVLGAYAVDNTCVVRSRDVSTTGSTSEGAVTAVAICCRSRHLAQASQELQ
T1 sequence (Q12809 whole entry): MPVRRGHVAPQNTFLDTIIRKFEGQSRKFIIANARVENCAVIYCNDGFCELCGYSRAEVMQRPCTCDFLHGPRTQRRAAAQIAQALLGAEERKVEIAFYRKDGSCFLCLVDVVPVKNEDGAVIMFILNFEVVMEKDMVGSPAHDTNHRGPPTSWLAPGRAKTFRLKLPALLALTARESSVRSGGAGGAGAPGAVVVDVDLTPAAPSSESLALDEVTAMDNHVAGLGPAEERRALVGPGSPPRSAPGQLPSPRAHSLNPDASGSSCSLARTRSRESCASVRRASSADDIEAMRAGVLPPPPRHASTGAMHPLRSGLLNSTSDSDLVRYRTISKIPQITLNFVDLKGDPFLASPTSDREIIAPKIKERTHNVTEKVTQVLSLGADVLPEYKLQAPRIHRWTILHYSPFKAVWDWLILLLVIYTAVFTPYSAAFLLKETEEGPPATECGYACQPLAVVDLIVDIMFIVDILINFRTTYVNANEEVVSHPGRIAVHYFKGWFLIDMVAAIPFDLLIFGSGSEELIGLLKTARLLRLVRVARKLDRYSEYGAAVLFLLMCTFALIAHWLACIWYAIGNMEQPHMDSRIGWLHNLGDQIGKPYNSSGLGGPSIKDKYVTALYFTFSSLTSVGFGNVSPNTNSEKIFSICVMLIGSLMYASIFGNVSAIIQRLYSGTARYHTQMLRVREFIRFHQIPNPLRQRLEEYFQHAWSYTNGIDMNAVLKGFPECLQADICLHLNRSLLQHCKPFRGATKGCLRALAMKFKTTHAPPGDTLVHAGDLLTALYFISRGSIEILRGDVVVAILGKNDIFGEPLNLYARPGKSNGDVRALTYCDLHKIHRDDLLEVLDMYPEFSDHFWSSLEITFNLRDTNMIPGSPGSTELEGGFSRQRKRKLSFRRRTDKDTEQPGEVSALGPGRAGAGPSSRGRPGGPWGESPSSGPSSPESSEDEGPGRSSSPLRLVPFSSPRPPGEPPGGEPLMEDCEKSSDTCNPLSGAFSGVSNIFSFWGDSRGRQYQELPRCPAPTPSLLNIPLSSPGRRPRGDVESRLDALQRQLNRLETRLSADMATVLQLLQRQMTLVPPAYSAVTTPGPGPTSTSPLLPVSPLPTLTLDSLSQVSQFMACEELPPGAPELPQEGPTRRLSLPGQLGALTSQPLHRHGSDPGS
GSK3β (Glycogen synthase kinase-3 beta), sequence (P49841 whole entry): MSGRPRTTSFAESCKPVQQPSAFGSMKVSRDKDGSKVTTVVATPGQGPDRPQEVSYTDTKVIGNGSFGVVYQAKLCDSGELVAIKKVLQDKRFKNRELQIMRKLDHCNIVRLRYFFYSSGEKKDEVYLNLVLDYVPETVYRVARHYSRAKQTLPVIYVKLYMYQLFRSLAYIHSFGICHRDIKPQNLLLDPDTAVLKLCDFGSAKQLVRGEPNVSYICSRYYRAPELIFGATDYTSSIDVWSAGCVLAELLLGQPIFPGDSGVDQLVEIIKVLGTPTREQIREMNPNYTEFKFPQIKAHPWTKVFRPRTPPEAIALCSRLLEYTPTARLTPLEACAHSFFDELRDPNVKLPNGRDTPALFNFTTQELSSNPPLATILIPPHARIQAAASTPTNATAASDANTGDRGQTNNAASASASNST
T2 sequence (Q8NBP7 with tags, fused parts or gaps V474I/G670E): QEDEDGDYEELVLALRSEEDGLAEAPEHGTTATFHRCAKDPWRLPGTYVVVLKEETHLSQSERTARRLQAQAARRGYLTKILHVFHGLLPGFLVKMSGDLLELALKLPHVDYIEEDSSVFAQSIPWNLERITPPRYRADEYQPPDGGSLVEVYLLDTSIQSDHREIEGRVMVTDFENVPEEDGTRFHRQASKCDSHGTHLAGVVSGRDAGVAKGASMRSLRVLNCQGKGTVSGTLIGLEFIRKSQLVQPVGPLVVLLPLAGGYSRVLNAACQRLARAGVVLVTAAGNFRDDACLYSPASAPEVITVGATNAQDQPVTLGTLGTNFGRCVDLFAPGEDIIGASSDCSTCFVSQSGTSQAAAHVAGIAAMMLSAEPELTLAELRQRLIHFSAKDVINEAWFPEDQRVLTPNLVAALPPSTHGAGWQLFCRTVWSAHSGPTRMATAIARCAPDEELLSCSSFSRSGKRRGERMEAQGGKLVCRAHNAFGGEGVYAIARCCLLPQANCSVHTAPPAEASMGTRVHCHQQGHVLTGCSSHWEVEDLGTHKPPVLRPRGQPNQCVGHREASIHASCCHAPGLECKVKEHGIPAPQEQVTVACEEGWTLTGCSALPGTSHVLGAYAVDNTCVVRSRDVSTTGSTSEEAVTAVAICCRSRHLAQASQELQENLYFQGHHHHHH

For `CN(C)C(=O)c1cnc(N[C@H]2CC[C@H](Nc3ccc(-n4ccccc4=O)cn3)C2)nn1` [Example 76, N,N-Dimethyl-3-(((1S,3S)-3-((2-oxo-2H-[1,3′-bipyridin]-6′-yl)amino)cyclopentyl)amino)-1,2,4-triazine-6-carboxamide], the values for the IC50 (in test [1]; in test [2]; against PCSK9 [4]) were more than 10000 nM, more than 40000 nM and 485 nM, respectively. On PCSK9 [3], the Kd was 125 nM.
Turning to `NC(=O)c1cnc(N[C@H]2CC[C@H](Nc3ccc(-n4ccccc4=O)cn3)C2)nn1` [Example 74, 3-(((1S,3S)-3-((2-Oxo-2H-[1,3′-bipyridin]-6′-yl)amino)cyclopentyl)amino)-1,2,4-triazine-6-carboxamide], the IC50 in test [1] is 8300 nM; in test [2], more than 40000 nM; on PCSK9 [4], 85 nM. In addition, the Kd at PCSK9 [3] was determined as 80 nM.
As to `Cc1nnc(N[C@H]2CC[C@H](Nc3ccc(-n4ccccc4=O)cn3)C2)nc1C` [Example 127, 6′-(((1S,3S)-3-((5,6-Dimethyl-1,2,4-triazin-3-yl)amino)cyclopentyl)amino)-2H-[1,3′-bipyridin]-2-one], the results for the IC50 (in test [1]; in test [2]; against PCSK9 [4]) were more than 10000 nM, more than 40000 nM and 193 nM, respectively. The Kd at PCSK9 [3] is 248 nM.
Regarding `O=c1c(OC(F)F)cccn1-c1ccc(N[C@H]2CC[C@H](Nc3ncc(C4CC4)nn3)C2)nc1` [Example 165, 6′-(((1S,3S)-3-((6-Cyclopropyl-1,2,4-triazin-3-yl)amino)cyclopentyl)amino)-3-(difluoromethoxy)-2H-[1,3′-bipyridin]-2-one], the IC50 in test [1] was found to be 5100 nM; in test [2], 25500 nM; against PCSK9 [4] it was 1.3 nM. Besides, on PCSK9 [5], the EC50 turned out to be 100 nM.
For `Cc1cnc(N[C@H]2CC[C@H](Nc3ccc(-n4c(=O)n(C)c5ccc(C#N)nc54)cn3)C2)nn1` [Example 213, 1-Methyl-3-(6-(((1S,3S)-3-((6-methyl-1,2,4-triazin-3-yl)amino)cyclopentyl)amino)pyridin-3-yl)-2-oxo-2,3-dihydro-1H-imidazo[4,5-b]pyridine-5-carbonitrile] the same measures were more than 10000 nM, more than 40100 nM, 1.6 nM and 200 nM.
As for `COc1cccn(-c2ccc(N[C@H]3CC[C@H](Nc4ncc(C(=O)NC5COC5)nn4)C3)nc2)c1=O` [Example 153, 3-(((1S,3S)-3-((3-Methoxy-2-oxo-2H-[1,3′-bipyridin]-6′-yl)amino)cyclopentyl)amino)-N-(oxetan-3-yl)-1,2,4-triazine-6-carboxamide], the IC50 in test [1] was more than 10000 nM; in test [2], more than 40100 nM; against PCSK9 [4], 3.3 nM. Besides, at PCSK9 [5], the EC50 was 100 nM.
For `O=C(NC1COC1)c1cnc(N[C@H]2CC[C@H](Nc3ccc(-n4cc(Cl)ccc4=O)cn3)C2)nn1` [Example 158, 3-(((1S,3S)-3-((5-Chloro-2-oxo-2H-[1,3′-bipyridin]-6′-yl)amino)cyclopentyl)amino)-N-(oxetan-3-yl)-1,2,4-triazine-6-carboxamide] the same measures were more than 10000 nM, more than 40100 nM, 7.6 nM and 200 nM.
The matching figures for `Cc1cnc(N[C@H]2CC[C@H](Nc3ccc(-n4cc(-c5c[nH]nn5)ccc4=O)cn3)C2)nn1` [Example 208, 6′-(((1S,3S)-3-((6-Methyl-1,2,4-triazin-3-yl)amino)cyclopentyl)amino)-5-(1H-1,2,3-triazol-4-yl)-2H-[1,3′-bipyridin]-2-one]: 1710 nM, more than 40100 nM, 6.5 nM and 300 nM.
The matching figures for `Cc1cccn(-c2ccc(N[C@H]3CC[C@H](Nc4ncc(C(=O)NC5COC5)nn4)C3)nc2)c1=O` [Example 155, 3-(((1S,3S)-3-((3-Methyl-2-oxo-2H-[1,3′-bipyridin]-6′-yl)amino)cyclopentyl)amino)-N-(oxetan-3-yl)-1,2,4-triazine-6-carboxamide]: more than 10000 nM, more than 40100 nM, 2.7 nM and 100 nM.
For `Cc1cnc(N[C@H]2CC[C@H](Nc3ccc(-n4c(=O)n(C)c5cc(C#N)ccc54)cn3)C2)nn1` [Example 211, 3-Methyl-1-(6-(((1S,3S)-3-((6-methyl-1,2,4-triazin-3-yl)amino)cyclopentyl)amino)pyridin-3-yl)-2-oxo-2,3-dihydro-1H-benzo[d]imidazole-5-carbonitrile], the IC50 in test [1] was more than 10000 nM; in test [2] it was 16500 nM; at PCSK9 [4] it was 1.4 nM. For the same molecule, the EC50 at PCSK9 [5] came out at 100 nM.
The matching figures for `COc1ccnn(-c2ccc(N[C@H]3CC[C@H](Nc4ncc(C)nn4)C3)nc2)c1=O` [Example 220, 4-Methoxy-2-(6-(((1S,3S)-3-((6-methyl-1,2,4-triazin-3-yl)amino)cyclopentyl)amino)pyridin-3-yl)pyridazin-3(2H)-one]: more than 10000 nM, more than 200000 nM, 1.7 nM and 200 nM.
